Experimental data: US9408850B2, “Substituted indazole derivatives active as kinase inhibitors” (NERVIANO MEDICAL SCIENCES S.R.L., priority 2011, dated 2016)
pIC50: −log10 of the molar value.

Tests used:
[1] = target: FLT3 cytoplasmic domain (GST fused protein) (Homo sapiens (Human), UniProt P36888); assay: Biochemical assay for inhibitors of FLT3 kinase activity; conditions: 2 nM pre activated enzyme, 254 microM ATP, 60 minutes at r.t.
Method: FLT3 cytoplasmic domain (aa 564-993end of the 993 aminoacid long full length sequence, accession number P36888 of UniProtKB/Swiss-Prot. database) was amplified by PCR starting from a testis cDNA library and then cloned into pVL vector for expression in insect cells through the baculovirus system. The GST-FLT3 cytoplasmic domain has been expressed in Sf21 cells infected for 72 hours at 27° C. The recombinant protein has been purified by affinity on GSH-sepharose and eluted with glutathione. A further purification step has been performed on heparine sepharose. […] General Principle-A specific peptidic substrate was trans-phosphorylated by the kinase in the presence of ATP traced with 33Pγ-ATP. At the end of the phosphorylation reaction, the not reacted ATP, cold and radioactive, was captured by an excess of dowex ion exchange resin that eventually settled by gravity to the bottom of the reaction plate. The supernatant was subsequently withdrawn and transferred into a counting plate that was then evaluated by β-counting. • ii. Dowex resin preparation-500 g of wet resin (SIGMA, custom prepared resin DOWEX 1×8 200-400 mesh, 2.5 Kg) were weighed out and diluted to 2 L in 150 mM sodium formate, pH 3.00. The resin was allowed to settle down overnight and then the supernatant was discarded. After three washes as above over a couple of days, the resin was allowed to settle and two volumes (with respect to the resin volume) were added of 150 mM sodium formate buffer. Biochemical Assay for Inhibitors of FLT3 Kinase Activity • i. Enzyme-The assay was performed using FLT3 cytoplasmic domain product and purified in house as GST fused protein. […] NO: 1). The peptide was purchased from American Peptide Company (Sunnyvale, Calif.). Biochemical Assay for Inhibitors of KIT Kinase Activity • i. Enzyme-The assay has been performed using KIT cytoplasmic domain product and purified in house as GST fused protein. […] NO: 2). The peptide was purchased from American Peptide Company (Sunnyvale, Calif.). Compound Testing • i. […] An automated station for serial dilutions (Biomek FX, Beckman) was used for producing 1:3 dilutions in 100% DMSO, from line A1 to A10, and for all the compounds in the column. […] The following dispensation into the plates plus 3 cycles of mixing, done by the robot itself, started the kinase reaction. At this point, the correct concentrations were restored for all the reagents. The robot incubated the plates for 60 minutes at r.t., and then stopped the reaction by pipetting 60 microL of dowex resin suspension into the reaction mix. In order to avoid tip clogging, wide bore tips were used to dispense the resin suspension. Three cycles of mixing were done immediately after the addition of the resin. Another mixing cycle was performed after all the plates were stopped, this time using normal tips: the plates were then allowed to rest for about one hour in order to allow resin sedimentation. […] Data Fitting-Data were analyzed by an internally customized version of the SW package “Assay Explorer” that provided sigmoidal fitting of the ten-dilutions curves for IC50 determination in the secondary assays/hit confirmation routines. Cell-Based Assays for Inhibitors of FLT3 Kinase Activity In vitro Cell Proliferation Assay for Inhibitors of FLT3 Kinase Activity

[2] = target: KIT cytoplasmic domain (GST fused protein) (Homo sapiens (Human), UniProt P10721); assay: Biochemical assay for inhibitors of KIT kinase activity; conditions: 4 nM pre activated enzyme, 4.4 microM ATP, 60 minutes at r.t.
KIT cytoplasmic domain (GST fused protein), sequence (P10721 544-976): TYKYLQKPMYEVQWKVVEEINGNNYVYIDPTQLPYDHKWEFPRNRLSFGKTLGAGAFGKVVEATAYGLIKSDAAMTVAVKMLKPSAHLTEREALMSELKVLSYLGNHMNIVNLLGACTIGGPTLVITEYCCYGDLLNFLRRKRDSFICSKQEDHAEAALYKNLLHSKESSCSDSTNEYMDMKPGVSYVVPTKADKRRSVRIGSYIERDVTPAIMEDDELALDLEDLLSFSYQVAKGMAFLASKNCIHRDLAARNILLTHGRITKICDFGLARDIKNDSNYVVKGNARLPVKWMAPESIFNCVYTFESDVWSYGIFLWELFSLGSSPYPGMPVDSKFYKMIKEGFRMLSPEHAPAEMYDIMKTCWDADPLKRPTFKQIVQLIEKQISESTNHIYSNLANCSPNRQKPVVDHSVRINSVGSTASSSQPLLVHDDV
Method: KIT cytoplasmic domain (aa 544-976end of the 976 aminoacid long full length sequence, accession number P10721 of UniProtKB/Swiss-Prot database) was cloned into pVL vector for expression in insect cells through the baculovirus system. The GST-KIT cytoplasmic domain has been expressed in Sf21 cells infected for 66 hrs at 27° C. The recombinant protein has been purified by affinity on GSH-sepharose and eluted with glutathione. […] General Principle-A specific peptidic substrate was trans-phosphorylated by the kinase in the presence of ATP traced with 33Pγ-ATP. At the end of the phosphorylation reaction, the not reacted ATP, cold and radioactive, was captured by an excess of dowex ion exchange resin that eventually settled by gravity to the bottom of the reaction plate. The supernatant was subsequently withdrawn and transferred into a counting plate that was then evaluated by β-counting. • ii. Dowex resin preparation-500 g of wet resin (SIGMA, custom prepared resin DOWEX 1×8 200-400 mesh, 2.5 Kg) were weighed out and diluted to 2 L in 150 mM sodium formate, pH 3.00. The resin was allowed to settle down overnight and then the supernatant was discarded. After three washes as above over a couple of days, the resin was allowed to settle and two volumes (with respect to the resin volume) were added of 150 mM sodium formate buffer. Biochemical Assay for Inhibitors of FLT3 Kinase Activity • i. Enzyme-The assay was performed using FLT3 cytoplasmic domain product and purified in house as GST fused protein. […] The peptide was purchased from American Peptide Company (Sunnyvale, Calif.). Biochemical Assay for Inhibitors of KIT Kinase Activity • i. Enzyme-The assay has been performed using KIT cytoplasmic domain product and purified in house as GST fused protein. […] NO: 2). The peptide was purchased from American Peptide Company (Sunnyvale, Calif.). Compound Testing • i. […] An automated station for serial dilutions (Biomek FX, Beckman) was used for producing 1:3 dilutions in 100% DMSO, from line A1 to A10, and for all the compounds in the column. […] The following dispensation into the plates plus 3 cycles of mixing, done by the robot itself, started the kinase reaction. At this point, the correct concentrations were restored for all the reagents. The robot incubated the plates for 60 minutes at r.t., and then stopped the reaction by pipetting 60 microL of dowex resin suspension into the reaction mix. In order to avoid tip clogging, wide bore tips were used to dispense the resin suspension. Three cycles of mixing were done immediately after the addition of the resin. Another mixing cycle was performed after all the plates were stopped, this time using normal tips: the plates were then allowed to rest for about one hour in order to allow resin sedimentation. […] Data Fitting-Data were analyzed by an internally customized version of the SW package “Assay Explorer” that provided sigmoidal fitting of the ten-dilutions curves for IC50 determination in the secondary assays/hit confirmation routines. Cell-Based Assays for Inhibitors of FLT3 Kinase Activity In vitro Cell Proliferation Assay for Inhibitors of FLT3 Kinase Activity

[3] = system: MOLM-13 cells, bearing a FLT3-ITD mutation; assay: In vitro cell proliferation assay (CellTiter-Glo), MOLM-13; assay type: cell-based; conditions: Homo sapiens, MOLM-13, 72 h
Method: (§1) The human acute leukemia MOLM-13 AND MV-4-11 cells, bearing a FLT3-ITD mutation, were seeded (5000 cells/well) in white 384 well-plates in complete medium (RPMI 1640 plus 10% Fetal bovine serum) and treated with compounds dissolved in 0.1% DMSO, 24 h after seeding. The cells were incubated at 37° C. and 5% CO2 and after 72 h the plates were processed using CellTiter-Glo assay (Promega) following the manufacturer's instruction.
(§2) CellTiter-Glo is a homogenous method based on the quantification of the ATP present, an indicator of metabolitically active cells. ATP was quantified using a system based on luciferase and D-luciferin resultant into light generation. The luminescent signal was proportional to the number of cells present in culture.
(§3) Briefly, 25 microL/well reagent solution were added to each well and, after 5 minutes shaking, microplates were read by Envision (PerkinElmer) luminometer. Inhibitory activity was evaluated comparing treated versus control data using Symyx Assay Explorer (Symyx Technologies Inc.) program. IC50 was calculated using sigmoidal interpolation curve.

[4] = system: MV-4-11 cells, bearing a FLT3-ITD mutation; assay: In vitro cell proliferation assay (CellTiter-Glo), MV-4-11; assay type: cell-based; conditions: Homo sapiens, MV4-11, MV-4-11, 72 h
Method: as §1, §2, §3

FLT3 cytoplasmic domain (GST fused protein), sequence (P36888 564-993): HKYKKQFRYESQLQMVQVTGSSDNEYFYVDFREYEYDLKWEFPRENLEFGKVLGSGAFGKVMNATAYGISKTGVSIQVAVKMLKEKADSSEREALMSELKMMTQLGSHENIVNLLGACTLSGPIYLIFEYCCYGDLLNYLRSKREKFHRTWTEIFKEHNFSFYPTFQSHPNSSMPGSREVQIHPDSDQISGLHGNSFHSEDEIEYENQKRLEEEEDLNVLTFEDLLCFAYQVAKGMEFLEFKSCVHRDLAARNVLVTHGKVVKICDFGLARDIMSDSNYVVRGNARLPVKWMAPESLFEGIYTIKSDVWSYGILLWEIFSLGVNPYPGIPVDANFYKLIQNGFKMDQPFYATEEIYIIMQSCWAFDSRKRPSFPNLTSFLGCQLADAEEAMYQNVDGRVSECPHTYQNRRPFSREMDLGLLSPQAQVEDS

Row | SMILES | pIC50 [1] | pIC50 [2] | pIC50 [3] | pIC50 [4]
1 | CN1CCN(c2ccc(C(=O)Nc3n[nH]c4cc(OCCOCc5ccncc5)ccc34)cc2)CC1 [Cpd. 35, 4-(4-Methyl-piperazin-1-yl)-N-{6-[2-(pyridin-4-ylmethoxy)-ethoxy]-1H-indazol-3-yl}-benzamide] | 5.93 | 5.63 | > 7.30 | > 7.30
2 | O=C(Nc1n[nH]c2cc(OCCOCc3ccccc3)ccc12)c1ccc(N2CCOCC2)cc1 [Cpd. 24, N-[6-(2-Benzyloxy-ethoxy)-1H-indazol-3-yl]-4-morpholin-4-yl-benzamide] | 6.79 | 6.59 | > 7.30 | > 7.30
3 | CN1CCN(c2ccc(C(=O)Nc3n[nH]c4cc(OCCOCc5ccccc5F)ccc34)cc2)CC1 [Cpd. 30, N-{6-[2-(2-Fluoro-benzyloxy)-ethoxy]-1H-indazol-3-yl}-4-(4-methyl-piperazin-1-yl)-benzamide] | 6.78 | 5.85 | > 7.30 | > 7.30
4 | O=C(Nc1n[nH]c2cc(OCCOCc3ccccc3)ccc12)c1ccc(NC2CCOCC2)cc1 [Cpd. 26, N-[6-(2-Benzyloxy-ethoxy)-1H-indazol-3-yl]-4-(tetrahydro-pyran-4-ylamino)-benzamide] | 7.05 | 6.91 | > 7.30 | > 7.30
5 | CN(c1ccc(C(=O)Nc2n[nH]c3cc(OCCOCc4ccccc4)ccc23)cc1)C1CC[N+](C)([O-])CC1 (centres unmarked) [Cpd. 41, N-[6-(2-Benzyloxy-ethoxy)-1H-indazol-3-yl]-4-[methyl-(1-methyl-1-oxy-piperidin-4-yl)-amino]-benzamide] | 7.28 | 6.74 | > 7.30 | > 7.30
